Laboratory results: ChEMBL document CHEMBL1152020, “Novel 2,5-disubstituted-1H-pyrroles with high affinity for the dopamine D3 receptor” (Bioorg Med Chem Lett, 1996)

Assays:
D(3) dopamine receptor = D(3) dopamine receptor (Homo sapiens, UniProt P35462); experiment: Binding affinity towards human Dopamine receptor D3 expressed in CHO cells by [125I]iodosulpiride displacement.; format: cell-based
D(2) dopamine receptor = D(2) dopamine receptor (Homo sapiens, UniProt P14416); experiment: Binding affinity towards human Dopamine receptor D2 expressed in CHO cells by [125I]iodosulpiride displacement.; format: cell-based
[1] = molecular target: Dopamine receptors; D2 & D3 (Homo sapiens) (UniProt P14416+P35462); experiment: Selectivity at D3 compared to D2 receptors.; format: protein assay

Chain of D(2) dopamine receptor (P14416 whole entry): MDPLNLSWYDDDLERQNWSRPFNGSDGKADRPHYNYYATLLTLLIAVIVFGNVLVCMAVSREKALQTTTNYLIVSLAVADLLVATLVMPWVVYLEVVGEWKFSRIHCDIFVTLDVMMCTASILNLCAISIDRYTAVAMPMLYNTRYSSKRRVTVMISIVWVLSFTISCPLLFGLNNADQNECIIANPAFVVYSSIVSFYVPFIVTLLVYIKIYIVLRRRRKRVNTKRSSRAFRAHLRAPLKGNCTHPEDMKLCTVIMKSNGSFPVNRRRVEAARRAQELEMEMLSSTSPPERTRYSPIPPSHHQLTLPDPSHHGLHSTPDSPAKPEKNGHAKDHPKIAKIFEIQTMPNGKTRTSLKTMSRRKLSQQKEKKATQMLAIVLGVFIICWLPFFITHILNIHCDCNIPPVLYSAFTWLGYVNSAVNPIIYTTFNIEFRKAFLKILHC
Chain of D(3) dopamine receptor (P35462 whole entry): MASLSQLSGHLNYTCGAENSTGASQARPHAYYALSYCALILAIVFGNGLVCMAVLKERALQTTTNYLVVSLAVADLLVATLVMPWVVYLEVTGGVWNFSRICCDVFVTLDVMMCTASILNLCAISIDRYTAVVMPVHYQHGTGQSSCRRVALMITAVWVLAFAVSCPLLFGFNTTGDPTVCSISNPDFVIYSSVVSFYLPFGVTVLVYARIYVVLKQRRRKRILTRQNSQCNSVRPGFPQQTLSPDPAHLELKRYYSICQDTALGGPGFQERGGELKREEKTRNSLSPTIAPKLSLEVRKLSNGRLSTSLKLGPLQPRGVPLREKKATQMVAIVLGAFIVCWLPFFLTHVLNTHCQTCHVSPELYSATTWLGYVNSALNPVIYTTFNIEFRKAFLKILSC

SMILES | Ki (D(3) dopamine receptor) [µM] | Ki (D(2) dopamine receptor) [µM] | Selectivity [1]
CCN(CC)Cc1ccc(-c2cc(S(=O)(=O)CC)ccc2OC)[nH]1 | 0.0398 | 0.316 | 8
CCS(=O)(=O)c1ccc(OC)c(-c2ccc(C(C)N3CCCC3)[nH]2)c1 (stereo not given) | 0.02 | 0.398 | 20
CCS(=O)(=O)c1ccc(OC)c(-c2ccc(CN3CCCCC3c3ccccc3)[nH]2)c1 (stereo not given) | 0.00126 | 0.0126 | 10
CCS(=O)(=O)c1ccc(OC)c(-c2ccc(CN3CCCC3c3ccccc3)[nH]2)c1 (stereo not given) | 0.001 | 0.0158 | 15
CCS(=O)(=O)c1ccc(OC)c(-c2ccc(CN3CCCC3)[nH]2)c1 | 0.0631 | 0.251 | 4
CCS(=O)(=O)c1ccc(OC)c(-c2ccc(C(C)N3CCCCCC3)[nH]2)c1 (stereo not given) | 0.02 | 0.0794 | 4
CCS(=O)(=O)c1ccc(OC)c(-c2ccc(C(C)N3CCCCC3)[nH]2)c1 (stereo not given) | 0.01 | 0.316 | 30
CCS(=O)(=O)c1ccc(OC)c(-c2ccc(CN3CCOCC3)[nH]2)c1 | 0.794 | 3.16 | 4
CCN(Cc1ccccc1)Cc1ccc(-c2cc(S(=O)(=O)CC)ccc2OC)[nH]1 | 0.000316 | 0.000794 | 3
CCS(=O)(=O)c1ccc(OC)c(-c2ccc(CN3CCCCCC3c3ccccc3)[nH]2)c1 (stereo not given) | 0.00126 | 0.0398 | 30
CCS(=O)(=O)c1ccc(OC)c(-c2ccc(CN3CCCCC3)[nH]2)c1 | 0.0251 | 0.158 | 6
CCN1CCCC1c1ccc(-c2cc(S(=O)(=O)CC)ccc2OC)[nH]1 (stereo not given) | 0.00501 | 0.0251 | 5
CCN1CCCC1CNC(=O)c1cc(S(=O)(=O)CC)ccc1OC (stereo not given) [SULTOPRIDE] | 0.00631 | 0.00631 | 
CCN1CCCCC1c1ccc(-c2cc(S(=O)(=O)CC)ccc2OC)[nH]1 (stereo not given) | 0.002 | 0.00794 | 4
CCS(=O)(=O)c1ccc(OC)c(-c2ccc(CN3CCCCCCC3c3ccccc3)[nH]2)c1 (stereo not given) | 0.02 | 0.316 | 15
CCS(=O)(=O)c1ccc(OC)c(-c2ccc(CN3CCCCCC3)[nH]2)c1 | 0.0158 | 0.158 | 10
CCN1CCCCCC1c1ccc(-c2cc(S(=O)(=O)CC)ccc2OC)[nH]1 (stereo not given) | 0.002 | 0.00794 | 4
